# US20090226536A1, “METHODS AND MATERIALS RELATING TO ENHANCED PRODUCTION OF DOPAMINE NEURONS” (priority 2004, published 2009)
# Tests used:
# [1] = test system: VM precursor cultures; assay: Total cell number, proliferation (BrdU) and active Caspase 3 in VM precursor cultures; type: cell-based, rat; settings: for active Caspase 3 immunostaining: VM precursor cultures; for active Caspase 3 immunostaining / proliferation (BrdU incorporation): 15 μM KP, 5 μM I3M; for proliferation (BrdU incorporation): VM precursors, 6 h BrdU pulse; for total number of VM cells (Hoechst 33258 staining): after 3 days in culture, 15 μM KP and 5 μM I3M
# Protocol: (§1) E14.5 VMs obtained from time-mated Sprague-Dawley rats (ethical approval for animal experimentation was granted by Stockholms Norra Djurförsöks Etiska Nämnd) were dissected, mechanically dissociated, and plated at a final density of 1×10^5 cells per cm2 on poly-D-lysine coated plates (Falcon) in serum-free N2 medium, consisting of a 1:1 mixture of F12 and MEM (Invitrogen) with 5 μg/ml insulin, 100 μg/ml transferrin, 100 μM putrescine, 20 nM progesterone, 30 nM selenium, 6 mg/ml glucose and 1 mg/ml BSA (all purchased from Sigma). Cultures were kept three days in vitro, in a 37° C. incubator, at 5% CO2, before fixation. MN9D and SN4741 cells were grown as described in Choi et al., 1991 and Son et al., 1999. MN9D cultures were fixed after four days in vitro. I3M and KP (Alexis Biochemicals, Göteborg, Sweden) were diluted in DMSO and added to the cultures at the time of plating. […] 10 μM BrdU was added to the culture media 6 hours prior to fixation.
# (§2) Cells were fixed in ice-cold 4% paraformaldehyde for 20 minutes and washed in PBS. For a detailed protocol of immunocytochemistry, see Castelo-Branco et al., 2003 (7). The following primary and secondary antibodies were used: mouse α-TH (1:1000 dilution—Immunostar), rabbit α-TH (1:250-Pelfreeze), mouse α-β-III-tubulin (1:1000-Promega), rabbit α.Nurr1 (1:1000-Santa Cruz), mouse α-MAP2 (1:200—Sigma), rabbit A-GFAP (1:400-Dako), mouse α.active-caspase III (1:100-Cell Signaling), mouse α-BrdU (1:100-Dako) and rat α.BrdU (1:100-Abcam), biotinylated 1:500, Cyanine-2 or rhodamine-coupled horse-α-mouse IgG 1:200 or goat α-rabbit IgG 1:200, from Vector and Jackson Laboratories). At the end of the staining procedure, the cultures were incubated with Hoechst 33258 reagent for 10 minutes. BrdU immunocytochemistry included an incubation for 30 minutes with 2NHCL. Images were acquired from stained cells in PBS at room temperature with a Zeiss Axioplan 100M microscope (LD Achrostigmat 20×, 0.3 PH1. 0-2 and LD Achroplan 40×, 0.60 Korr PH2. 0-2) and collected with a Hamamatsu camera C4742-95 (with QED imaging software).
# (§3) Quantitative immunocytochemical data represent the means±standard errors of counts from ten non-overlapping fields, in three wells per condition from three to five separate experiments. For the RT-PCR experiments, five separate experiments were analysed and for the GSK-3β inhibitors dose response, two sets of experiments were analysed. Statistical analysis was performed in Prism 4 (GraphPad software, San Diego, USA) as described in the figure legends, with […] significance for all tests assumed at the level of p<0.05 (*p<0.05; **0.01<p<0.001; ***p<0.001). Statistical tests were chosen according to the distribution of the sample population.
# [2] = test system: TH; assay: Immunoblotting of TH protein in VM precursors; type: cell-based, rat; settings: 15 μM KP or 5 μM I3M for 24 hours
# Protocol: as §1
# (§4) Cell were lysed for 15 min in a modified RIPA buffer containing 20 mM Tris (pH 7.5), 140 mM NaCl, 10% glycerol, 1% IGEPAL, 1 mM β-glycerol-phosphate, 1 mM Na3VO4 and complete protease inhibitors (Roche). Plates were scraped and the cell lysate was centrifuged in a microfuge for 5 min. […] Equal amounts of protein were analysed by polyacrylamide gel electrophoresis (10% polyacrylamide). […]
# [3] = test system: β-catenin; assay: Immunoblotting of β-catenin protein in VM precursors; type: cell-based, rat; settings: 15 μM KP or 5 μM I3M for 24 hours
# Protocol: as §1, §4
# [4] = test system: MN9D cells; assay: MN9D cell number, proliferation and morphological differentiation; type: cell-based
# Protocol: as §1, §2
# [5] = test system: VM Nurr1+ precursors; assay: TH/Nurr1 double immunostaining, conversion of Nurr1+ precursors into TH+ neurons; type: cell-based, rat; settings: three days after treatment with 15 μM KP
# Protocol: as §1
# Cells were fixed in ice-cold 4% paraformaldehyde for 20 minutes and washed in PBS. […]
# Quantitative immunocytochemical data represent the means±standard errors of counts from ten non-overlapping fields, in three wells per condition from three to five separate experiments. For the RT-PCR experiments, five separate experiments were analysed and for the GSK-3β inhibitors dose response, two sets of experiments were analysed. […]
# [6] = biological target: T1, GSK-3β (Mus musculus, UniProt Q9WV60); assay: Immunoblotting of GSK-3β protein levels in SN4741 cells; type: cell-based; settings: 15 μM KP and 5 μM I3M for 24 hours
# T1 construct: treatment of a DA precursor cell line derived from the substantia nigra, SN4741 (21) with KP or I3M led to a downregulation of GSK-3β protein levels; endogenous in cells; host or cells: SN4741 cells
# Protocol: as §1, §4
# [7] = test system: VM precursors; assay: Immunostaining for neuronal and glial differentiation (GFAP, TuJ1, MAP2, TH) of VM precursors; type: cell-based, rat; settings: three days, 15 μM KP and 5 μM I3M
# Protocol: as §1, §2, §3
# [8] = test system: rat VM E14.5 precursor cultures; assay: TH immunostaining, number of TH+ cells in VM precursor cultures; type: cell-based; settings: for dose of maximal effect / optimal dose to increase TH+ cell numbers: dose-response in E14.5 VM precursors; for increase in the number of TH positive cells (maximal effect): rat VM E14.5 precursor cultures, three days in vitro, at 3-5 μM I3M, 15 μM KP
# Protocol: as §1, §2, §3
# [9] = test system: c-ret mRNA; assay: Real time RT-PCR of c-ret mRNA in VM precursor cultures; type: cell-based, rat; settings: 15 μM KP, three days in vitro
# Text: Total RNA was isolated from E14.5 VM precursor cultures (2.5×10^6 cells in 6 cm2 dishes) treated with the GSK-3β inhibitors for three days in vitro. For a description of reverse transcription reaction, real-time RT-PCR and c-ret primer sequences, see Castelo-Branco et al., 2003 (7). Quantum RNA classical 18S internal standard was purchased from Ambion (Austin, USA) and PCR primers from DNA Technology A/S, Aarhus, Denmark. The following PCR programme was used for SYBR Green detection on the ABI PRISM 5700 Detection System (PE AppliedBiosystems, Foster City, Calif., USA): 94° C. for 2 min, 35-40 cycles of 94° C. for 30 s, 59° C. for 30s, 72° C. for 15s and 80° C. for 5s. Statistical analysis of the results was performed by a 2-tailed Wilcoxon signed rank test. Significance for all tests was assumed at the level of p<0.05 (*p<0.05; **0.01<p<0.001; ***p<0.001).
# [10] = test system: GSK-3β and CDKs; settings: at 3-5 μM I3M and 15 μM KP; refs (20, 13); cited from earlier work
# [11] = MN9D cells, 15 μM KP for four days
# T1 sequence (Q9WV60 whole entry): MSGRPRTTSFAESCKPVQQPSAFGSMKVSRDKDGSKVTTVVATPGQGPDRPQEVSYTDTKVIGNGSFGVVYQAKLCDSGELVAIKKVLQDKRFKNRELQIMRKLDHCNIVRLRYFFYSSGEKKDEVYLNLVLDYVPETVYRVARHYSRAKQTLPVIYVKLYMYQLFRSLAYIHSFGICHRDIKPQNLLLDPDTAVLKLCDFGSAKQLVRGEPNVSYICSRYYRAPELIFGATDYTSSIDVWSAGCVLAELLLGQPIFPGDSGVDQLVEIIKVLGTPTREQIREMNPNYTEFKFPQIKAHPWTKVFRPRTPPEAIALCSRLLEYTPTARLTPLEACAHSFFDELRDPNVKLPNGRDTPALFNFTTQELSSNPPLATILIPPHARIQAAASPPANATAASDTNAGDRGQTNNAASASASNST
GSK-3β protein levels [6],SMILES,active Caspase 3 immunostaining [1],proliferation (BrdU incorporation) [1],total number of VM cells (Hoechst 33258 staining) [1],TH protein levels [2],β-catenin protein levels [3],morphological differentiation of MN9D cells ([4]; 15 μM KP for four days),neurite extension of MN9D cells ([4]; KP treatment),"proliferation (BrdU incorporation) [4, 11]","total number of cells (Hoechst 33258) [4, 11]",increase in the number of TH/Nurr1 double positive cells [5] [fold],immature neurons (TuJ1 positive cells/Hoechst 33258) [7],number of mature neurons (MAP2 positive cells/Hoechst 33258) [7],proportion of TH+ DA neurons (TH+/TuJ1+ cells) [7],total number of astrocytes (GFAP positive cells/Hoechst 33258) [7],dose of maximal effect / optimal dose to increase TH+ cell numbers [8] [µM],increase in the number of TH positive cells (maximal effect) [8],c-ret mRNA levels [9],kinase selectivity at the concentrations used [10]
decreases,"O=C1Cc2c([nH]c3ccc(Br)cc23)-c2ccccc2N1 [KP, Kenpaullone]",not modified,not affected,did not change,increased,increased,induced morphological differentiation,increase,did not alter,did not alter,2.5,increased,increase,marked increase,increased,15,three,upregulated,GSK-3β selective inhibitor
decreases,"O=C1Nc2ccccc2/C1=C1/Nc2ccccc2/C1=N\O [I3M, Indirubin-3-monoxime]",reduced,significantly decreased,did not change,increased,increased,,,,,,increased,increase,marked increase,increased,3 to 5,five,,inhibits both GSK-3β and CDKs
